One assay deals with Tel-Src (Homo sapiens, UniProt P12931+P41212). Nature of the assay: Tyrosine kinase transformed Ba/F3 cellular assay. Type of assay: cell-based. As to conditions: for cellular activity against Src-family kinases (Tel-Src): Ba/F3.
For another assay, the target named is Tel-Lyn (Homo sapiens, UniProt P07948+P41212). Nature of the assay: Tyrosine kinase transformed Ba/F3 cellular assay. Type of assay: cell-based. As to conditions: for cellular activity against Src-family kinases (Tel-Lyn): Ba/F3.
Assay [1] deals with b-raf, CSF1R, DDR1, DDR2, EphA2, EphA5, EphA8, EphB1, EphB2, EphB3, Frk, Kit, Lck, p38α, p38β, PDGFRα, PDGFRβ, Raf1. The experiment in a line: Ambit KinomeScan panel of 402 kinases, single concentration. Type of assay: binding. As to conditions: single concentration of 10 µM.
The next assay deals with T1, EphA6 (Homo sapiens, UniProt Q9UF33).
T1 sequence (Q9UF33 23-1036): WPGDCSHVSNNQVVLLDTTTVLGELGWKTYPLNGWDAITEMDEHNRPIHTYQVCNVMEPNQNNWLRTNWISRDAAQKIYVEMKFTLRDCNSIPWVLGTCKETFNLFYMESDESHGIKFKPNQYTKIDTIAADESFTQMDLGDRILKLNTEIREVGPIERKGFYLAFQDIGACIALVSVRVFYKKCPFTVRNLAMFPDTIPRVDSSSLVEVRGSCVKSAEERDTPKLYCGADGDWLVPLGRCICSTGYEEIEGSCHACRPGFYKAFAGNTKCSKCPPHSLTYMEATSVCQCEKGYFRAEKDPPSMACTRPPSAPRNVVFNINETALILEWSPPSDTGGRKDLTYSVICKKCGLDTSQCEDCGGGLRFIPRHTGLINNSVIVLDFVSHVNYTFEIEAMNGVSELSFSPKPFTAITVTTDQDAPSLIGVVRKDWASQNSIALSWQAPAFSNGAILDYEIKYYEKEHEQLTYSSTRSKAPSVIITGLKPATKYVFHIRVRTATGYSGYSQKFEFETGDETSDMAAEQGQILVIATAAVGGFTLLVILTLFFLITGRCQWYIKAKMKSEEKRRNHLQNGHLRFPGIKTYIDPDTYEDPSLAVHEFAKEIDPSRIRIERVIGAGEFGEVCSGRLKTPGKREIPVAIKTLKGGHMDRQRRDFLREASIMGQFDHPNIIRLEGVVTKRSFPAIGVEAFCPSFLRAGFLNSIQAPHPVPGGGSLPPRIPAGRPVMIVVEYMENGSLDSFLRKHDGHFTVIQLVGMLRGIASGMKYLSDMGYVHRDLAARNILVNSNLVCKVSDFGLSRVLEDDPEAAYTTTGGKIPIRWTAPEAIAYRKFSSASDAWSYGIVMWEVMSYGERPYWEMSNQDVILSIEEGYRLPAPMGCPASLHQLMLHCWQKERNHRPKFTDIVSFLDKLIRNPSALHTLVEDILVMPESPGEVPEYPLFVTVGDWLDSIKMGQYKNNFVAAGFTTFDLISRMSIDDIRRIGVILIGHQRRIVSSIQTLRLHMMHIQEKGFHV
The experiment in a line: KinomeScan dose-response dissociation constant. The following applies: KinomeScan binding.

In another assay the target is EphA7 (Homo sapiens, UniProt Q15375). Nature of the assay: KinomeScan dose-response dissociation constant. Type of assay: binding. The following applies: for inhibition of EphA7: KinomeScan binding.
Another assay deals with T2, EphB1 (Homo sapiens, UniProt P54762).
T2 sequence (P54762 18-984): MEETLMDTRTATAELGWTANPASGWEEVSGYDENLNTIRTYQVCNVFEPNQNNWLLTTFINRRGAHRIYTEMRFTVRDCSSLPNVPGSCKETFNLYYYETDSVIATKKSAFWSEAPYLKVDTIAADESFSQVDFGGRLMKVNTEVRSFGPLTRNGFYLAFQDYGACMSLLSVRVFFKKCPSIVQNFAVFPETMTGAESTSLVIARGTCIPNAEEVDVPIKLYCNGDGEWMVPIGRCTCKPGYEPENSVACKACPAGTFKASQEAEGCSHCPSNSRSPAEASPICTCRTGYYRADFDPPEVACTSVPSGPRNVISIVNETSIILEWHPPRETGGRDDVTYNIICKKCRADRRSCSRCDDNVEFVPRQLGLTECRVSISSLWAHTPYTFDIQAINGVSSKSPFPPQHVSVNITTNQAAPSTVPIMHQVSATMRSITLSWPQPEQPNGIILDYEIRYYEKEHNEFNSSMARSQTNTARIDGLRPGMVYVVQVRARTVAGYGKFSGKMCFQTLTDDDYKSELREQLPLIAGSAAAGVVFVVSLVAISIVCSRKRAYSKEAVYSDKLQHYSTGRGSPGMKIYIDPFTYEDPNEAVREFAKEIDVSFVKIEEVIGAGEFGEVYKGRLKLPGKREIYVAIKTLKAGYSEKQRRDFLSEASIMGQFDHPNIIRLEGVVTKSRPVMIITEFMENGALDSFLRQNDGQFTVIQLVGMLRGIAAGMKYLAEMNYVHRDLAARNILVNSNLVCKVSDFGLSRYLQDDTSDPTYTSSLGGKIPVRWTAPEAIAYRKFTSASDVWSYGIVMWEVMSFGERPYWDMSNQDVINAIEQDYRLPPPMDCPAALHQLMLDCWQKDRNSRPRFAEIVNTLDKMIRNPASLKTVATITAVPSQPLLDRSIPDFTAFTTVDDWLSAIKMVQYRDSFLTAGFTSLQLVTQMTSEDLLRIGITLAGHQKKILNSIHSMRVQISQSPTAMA
Nature of the assay: KinomeScan dose-response dissociation constant. The following applies: KinomeScan binding.

The target in the next assay is b-raf (Homo sapiens, UniProt P15056). Nature of the assay: Cellular activity against b-raf. Type of assay: cell-based.
Another assay deals with T3, Tel fusion of EphA3 (Homo sapiens, UniProt P29320).
T3 sequence (P29320 621-882): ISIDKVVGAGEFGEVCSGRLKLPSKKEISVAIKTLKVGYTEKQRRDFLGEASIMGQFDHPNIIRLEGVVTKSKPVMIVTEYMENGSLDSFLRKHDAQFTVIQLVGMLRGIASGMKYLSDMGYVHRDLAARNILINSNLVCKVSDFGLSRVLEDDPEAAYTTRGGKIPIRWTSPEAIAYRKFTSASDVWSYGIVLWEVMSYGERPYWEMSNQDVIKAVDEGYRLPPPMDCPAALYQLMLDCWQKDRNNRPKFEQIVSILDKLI
T3 sequence (P41212 40-124 partner): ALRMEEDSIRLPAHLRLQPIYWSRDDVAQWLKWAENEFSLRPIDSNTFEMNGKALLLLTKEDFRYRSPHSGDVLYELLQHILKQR
Nature of the assay: Tyrosine kinase transformed Ba/F3 cellular assay. Type of assay: cell-based. As to conditions: Ba/F3 cells transformed with Tel fusion of EphA3.

For another assay, the target named is Bcr-Abl (Homo sapiens, UniProt P00519+P11274). Nature of the assay: Tyrosine kinase transformed Ba/F3 cellular assay. As to conditions: for cross reactivity with Bcr-Abl: Ba/F3 panel screen. The format is cell-based.
In another assay the test system is Eph-family kinases. Nature of the assay: Invitrogen SelectScreen biochemical kinase activity assay. The following applies: [Km,app] ATP, starting concentration 10 µM.
Another assay addresses FGFR2 (Homo sapiens, UniProt P21802). The experiment in a line: Tyrosine kinase transformed Ba/F3 cellular assay. The format is cell-based. As to conditions: Ba/F3 panel screen, printed FGFR2/3/4.
Another assay has as its target FGFR3 (Homo sapiens, UniProt P22607). The experiment in a line: Tyrosine kinase transformed Ba/F3 cellular assay. The following applies: Ba/F3 panel screen, printed FGFR2/3/4. Type of assay: cell-based.
For the next assay, the target named is FGFR4 (Homo sapiens, UniProt P22455). The experiment in a line: Tyrosine kinase transformed Ba/F3 cellular assay. The format is cell-based. The following applies: Ba/F3 panel screen, printed FGFR2/3/4.
A further assay deals with T4, EphB2 (Homo sapiens, UniProt P29323).
T4 sequence (P29323 19-1055): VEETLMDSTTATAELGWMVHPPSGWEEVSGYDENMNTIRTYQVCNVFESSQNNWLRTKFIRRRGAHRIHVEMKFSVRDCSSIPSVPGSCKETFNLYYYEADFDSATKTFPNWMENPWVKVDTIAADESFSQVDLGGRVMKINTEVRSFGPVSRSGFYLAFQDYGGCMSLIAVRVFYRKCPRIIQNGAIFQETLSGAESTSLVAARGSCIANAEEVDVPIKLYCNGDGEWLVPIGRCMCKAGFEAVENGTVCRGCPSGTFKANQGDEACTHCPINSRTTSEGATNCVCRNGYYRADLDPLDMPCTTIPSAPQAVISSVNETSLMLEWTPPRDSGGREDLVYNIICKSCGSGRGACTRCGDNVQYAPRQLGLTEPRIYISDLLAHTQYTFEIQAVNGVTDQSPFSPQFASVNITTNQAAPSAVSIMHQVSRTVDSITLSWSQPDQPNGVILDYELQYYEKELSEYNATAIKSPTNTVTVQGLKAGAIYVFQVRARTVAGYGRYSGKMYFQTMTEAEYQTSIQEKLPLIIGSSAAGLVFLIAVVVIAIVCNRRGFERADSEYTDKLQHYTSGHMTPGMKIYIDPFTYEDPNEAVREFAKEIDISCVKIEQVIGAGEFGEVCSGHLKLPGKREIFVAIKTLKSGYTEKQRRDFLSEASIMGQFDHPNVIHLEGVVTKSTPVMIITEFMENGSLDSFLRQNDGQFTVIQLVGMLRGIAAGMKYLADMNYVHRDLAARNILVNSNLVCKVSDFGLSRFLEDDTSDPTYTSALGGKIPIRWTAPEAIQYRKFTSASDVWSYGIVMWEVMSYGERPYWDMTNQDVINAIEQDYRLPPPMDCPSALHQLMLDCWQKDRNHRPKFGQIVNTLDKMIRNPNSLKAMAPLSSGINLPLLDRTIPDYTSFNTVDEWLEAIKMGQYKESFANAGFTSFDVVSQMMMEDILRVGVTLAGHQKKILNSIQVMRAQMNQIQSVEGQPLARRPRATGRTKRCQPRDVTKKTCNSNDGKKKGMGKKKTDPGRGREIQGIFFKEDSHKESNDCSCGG
The following applies: proteomic and cellular screening approaches ref 10, 9; cited from earlier work.

Assay [2] concerns Bcr-Abl threonine to isoleucine gatekeeper substitution. The following applies: threonine to isoleucine substitution of the gatekeeper position ref 21; cited from earlier work.

What is called EC50 is the concentration needed to bring the measured effect to its halfway point. Low readings indicate an effect from little substance, high ones a need for much substance.

SMILES strings stand for the structures.

Sequence of EphA7 (Q15375 28-998, species assumed): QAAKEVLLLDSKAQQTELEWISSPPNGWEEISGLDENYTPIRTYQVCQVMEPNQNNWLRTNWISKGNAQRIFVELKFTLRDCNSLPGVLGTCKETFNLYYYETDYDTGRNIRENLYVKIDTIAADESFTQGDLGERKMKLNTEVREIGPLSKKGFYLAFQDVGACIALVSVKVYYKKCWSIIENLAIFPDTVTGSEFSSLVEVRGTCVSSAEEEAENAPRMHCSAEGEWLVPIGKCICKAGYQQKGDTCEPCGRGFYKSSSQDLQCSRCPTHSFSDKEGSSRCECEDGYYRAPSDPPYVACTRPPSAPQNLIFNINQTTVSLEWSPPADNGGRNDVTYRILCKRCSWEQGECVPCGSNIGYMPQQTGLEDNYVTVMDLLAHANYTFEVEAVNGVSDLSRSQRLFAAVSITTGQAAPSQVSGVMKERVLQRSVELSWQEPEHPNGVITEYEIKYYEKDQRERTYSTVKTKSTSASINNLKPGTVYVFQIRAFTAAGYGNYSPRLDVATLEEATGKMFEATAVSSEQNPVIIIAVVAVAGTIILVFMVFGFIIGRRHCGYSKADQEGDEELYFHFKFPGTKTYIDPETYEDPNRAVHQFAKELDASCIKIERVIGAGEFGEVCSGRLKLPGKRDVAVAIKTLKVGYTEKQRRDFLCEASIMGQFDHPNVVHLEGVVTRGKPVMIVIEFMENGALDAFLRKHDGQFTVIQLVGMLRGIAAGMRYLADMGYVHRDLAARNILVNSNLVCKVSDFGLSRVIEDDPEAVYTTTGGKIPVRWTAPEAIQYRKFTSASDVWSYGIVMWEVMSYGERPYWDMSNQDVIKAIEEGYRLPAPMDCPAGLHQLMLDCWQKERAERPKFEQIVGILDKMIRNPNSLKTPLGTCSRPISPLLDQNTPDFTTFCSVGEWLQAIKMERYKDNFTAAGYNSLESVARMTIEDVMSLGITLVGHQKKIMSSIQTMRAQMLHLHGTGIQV
Sequence of Tel-Lyn (P07948 247-501 limits assumed, one chain of several): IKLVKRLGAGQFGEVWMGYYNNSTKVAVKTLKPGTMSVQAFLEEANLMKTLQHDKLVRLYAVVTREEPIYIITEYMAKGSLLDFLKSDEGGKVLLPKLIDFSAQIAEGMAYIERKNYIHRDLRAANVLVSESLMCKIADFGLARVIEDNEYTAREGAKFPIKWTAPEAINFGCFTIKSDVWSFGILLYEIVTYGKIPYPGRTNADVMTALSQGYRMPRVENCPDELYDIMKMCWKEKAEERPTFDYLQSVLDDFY
Sequence of Tel-Src (P12931 270-523 limits assumed, one chain of several): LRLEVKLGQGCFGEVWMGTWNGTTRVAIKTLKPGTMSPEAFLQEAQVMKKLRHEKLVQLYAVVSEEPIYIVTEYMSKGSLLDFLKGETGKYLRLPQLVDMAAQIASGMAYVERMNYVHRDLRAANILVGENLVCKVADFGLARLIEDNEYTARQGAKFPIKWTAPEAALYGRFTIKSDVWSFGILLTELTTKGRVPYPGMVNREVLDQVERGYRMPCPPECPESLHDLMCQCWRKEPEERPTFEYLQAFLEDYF
Sequence of Bcr-Abl (P00519 28-1130 limits assumed, one chain of several): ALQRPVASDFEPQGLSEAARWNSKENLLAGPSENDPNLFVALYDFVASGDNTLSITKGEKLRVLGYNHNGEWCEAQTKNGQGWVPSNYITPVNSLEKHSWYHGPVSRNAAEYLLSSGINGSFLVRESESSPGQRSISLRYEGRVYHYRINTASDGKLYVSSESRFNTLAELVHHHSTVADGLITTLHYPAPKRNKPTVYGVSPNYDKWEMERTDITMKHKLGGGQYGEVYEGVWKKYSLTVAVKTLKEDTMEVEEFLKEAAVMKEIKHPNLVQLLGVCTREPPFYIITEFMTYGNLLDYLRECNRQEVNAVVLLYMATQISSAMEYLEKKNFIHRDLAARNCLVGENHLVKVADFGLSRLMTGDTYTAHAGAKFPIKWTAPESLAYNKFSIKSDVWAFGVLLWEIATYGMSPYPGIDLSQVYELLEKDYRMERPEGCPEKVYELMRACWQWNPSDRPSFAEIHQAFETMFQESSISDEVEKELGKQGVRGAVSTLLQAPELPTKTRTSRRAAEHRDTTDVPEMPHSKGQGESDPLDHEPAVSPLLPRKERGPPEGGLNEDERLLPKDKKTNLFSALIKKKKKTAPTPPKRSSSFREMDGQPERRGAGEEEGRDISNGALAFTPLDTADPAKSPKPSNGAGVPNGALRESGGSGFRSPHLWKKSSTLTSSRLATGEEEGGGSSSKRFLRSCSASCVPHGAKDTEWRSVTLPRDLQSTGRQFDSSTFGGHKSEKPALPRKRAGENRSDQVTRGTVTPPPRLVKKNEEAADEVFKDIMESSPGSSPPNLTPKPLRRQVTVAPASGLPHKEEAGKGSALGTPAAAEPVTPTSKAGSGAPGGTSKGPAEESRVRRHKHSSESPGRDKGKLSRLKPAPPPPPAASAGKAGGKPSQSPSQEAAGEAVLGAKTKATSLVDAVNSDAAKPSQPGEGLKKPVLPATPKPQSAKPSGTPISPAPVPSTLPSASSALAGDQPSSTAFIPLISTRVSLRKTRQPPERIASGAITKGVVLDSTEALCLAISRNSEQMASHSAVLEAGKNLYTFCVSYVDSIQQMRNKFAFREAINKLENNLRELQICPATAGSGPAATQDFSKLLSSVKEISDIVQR
Sequence of b-raf (P15056 whole entry, species assumed, the tested form may be a part): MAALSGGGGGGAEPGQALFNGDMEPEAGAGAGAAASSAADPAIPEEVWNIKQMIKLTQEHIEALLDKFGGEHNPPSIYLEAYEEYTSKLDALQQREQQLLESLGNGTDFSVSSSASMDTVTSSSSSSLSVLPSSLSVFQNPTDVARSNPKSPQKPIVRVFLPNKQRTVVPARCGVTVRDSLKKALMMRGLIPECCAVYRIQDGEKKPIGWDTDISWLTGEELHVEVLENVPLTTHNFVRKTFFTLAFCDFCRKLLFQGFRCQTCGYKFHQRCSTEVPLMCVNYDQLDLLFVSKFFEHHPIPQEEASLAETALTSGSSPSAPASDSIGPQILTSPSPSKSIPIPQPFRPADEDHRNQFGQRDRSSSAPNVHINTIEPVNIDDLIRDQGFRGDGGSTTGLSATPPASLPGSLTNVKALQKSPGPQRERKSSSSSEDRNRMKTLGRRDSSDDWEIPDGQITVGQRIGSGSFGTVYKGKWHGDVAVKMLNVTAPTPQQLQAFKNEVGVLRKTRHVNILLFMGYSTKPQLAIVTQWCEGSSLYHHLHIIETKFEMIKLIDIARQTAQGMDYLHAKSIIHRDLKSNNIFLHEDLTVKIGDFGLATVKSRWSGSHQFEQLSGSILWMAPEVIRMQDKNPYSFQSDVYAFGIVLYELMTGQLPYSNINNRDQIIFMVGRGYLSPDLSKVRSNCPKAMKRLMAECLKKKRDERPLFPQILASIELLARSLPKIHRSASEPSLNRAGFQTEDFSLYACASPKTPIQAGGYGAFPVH
Sequence of FGFR3 (P22607 472-761 limits assumed): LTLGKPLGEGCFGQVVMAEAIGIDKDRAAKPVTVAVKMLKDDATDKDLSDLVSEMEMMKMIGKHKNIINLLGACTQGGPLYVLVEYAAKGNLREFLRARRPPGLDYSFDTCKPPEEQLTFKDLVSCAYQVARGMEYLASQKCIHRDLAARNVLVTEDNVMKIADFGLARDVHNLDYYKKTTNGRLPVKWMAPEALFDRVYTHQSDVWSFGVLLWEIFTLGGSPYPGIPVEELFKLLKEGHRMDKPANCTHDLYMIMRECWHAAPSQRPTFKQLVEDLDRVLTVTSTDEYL
Sequence of FGFR2 (P21802 481-770 limits assumed, species assumed): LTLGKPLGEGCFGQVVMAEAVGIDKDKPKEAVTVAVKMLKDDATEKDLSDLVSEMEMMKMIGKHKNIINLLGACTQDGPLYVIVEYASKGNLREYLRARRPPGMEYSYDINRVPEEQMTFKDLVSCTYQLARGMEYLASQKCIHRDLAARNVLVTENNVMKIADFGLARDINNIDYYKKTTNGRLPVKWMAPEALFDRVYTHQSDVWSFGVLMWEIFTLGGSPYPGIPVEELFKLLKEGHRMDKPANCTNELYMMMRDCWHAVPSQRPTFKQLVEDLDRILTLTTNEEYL
Sequence of FGFR4 (P22455 467-755 limits assumed): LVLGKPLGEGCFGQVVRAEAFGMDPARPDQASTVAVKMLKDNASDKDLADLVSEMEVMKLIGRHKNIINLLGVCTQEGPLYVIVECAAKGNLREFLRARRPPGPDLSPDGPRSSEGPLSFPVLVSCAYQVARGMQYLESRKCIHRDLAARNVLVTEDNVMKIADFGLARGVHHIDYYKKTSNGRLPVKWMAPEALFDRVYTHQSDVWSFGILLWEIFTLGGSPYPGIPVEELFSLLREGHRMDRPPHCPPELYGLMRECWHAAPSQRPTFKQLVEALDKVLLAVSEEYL

On to `Cc1cn(-c2cc(NC(=O)c3ccc(C)c(NC(=O)c4ccno4)c3)cc(C(F)(F)F)c2)cn1` [Compound 6], for which, at Tel-Src, the “cellular activity against Src-family kinases (Tel-Src)” value is reported as “did not exhibit significant cellular activity”. Further, the “cellular activity against Src-family kinases (Tel-Lyn)” value at Tel-Lyn is given as “did not exhibit significant cellular activity”. In addition, the “selectivity profile (binding to kinases)” value in [1] is “binding to a common set of kinases”. Besides, the “inhibition of EphA6” value on EphA6 is listed as “not inhibited”. In addition, on EphA7, the “inhibition of EphA7” value was “not inhibited”. In addition, the “inhibition of EphB1” value on EphB1 is given as “not inhibited”. For the same compound, the “cellular activity against b-raf” value at b-raf is given as “did not exhibit significant cellular activity”.

For `CCN1CCN(Cc2ccc(NC(=O)c3ccc(C)c(NC(=O)c4cncc(-c5cccs5)c4)c3)cc2C(F)(F)F)CC1` [Compound 7], the concentration for a half-maximal effect (EC50) on Tel fusion of EphA3, on Tel-Src, at Tel-Lyn (Ba/F3 cells transformed with Tel fusion of Lyn) and at Bcr-Abl (Ba/F3 cells transformed with Bcr-Abl) was less than 500 nM each time. Further, the “cross reactivity with Bcr-Abl” value at Bcr-Abl is “cross reactivity”. Moreover, the “selectivity profile (binding to kinases)” value in assay [1] is “inhibited all these kinases and many more”.

For `Cc1ccc(C(=O)Nc2cccc(C(F)(F)F)c2)cc1Nc1ccc2occc(=O)c2c1` [Compound 8], the “cross reactivity with Bcr-Abl” value at Bcr-Abl is on record as “cross reactivity”. Also, in assay [1], the “selectivity profile (binding to kinases)” value is on record as “binding to a common set of kinases”. Moreover, the “inhibition of EphA6” value on EphA6 is reported as “not inhibited”. For the same compound, at EphA7, the “inhibition of EphA7” value is “not inhibited”. For the same compound, the “inhibition of EphB1” value at EphB1 is “not inhibited”.

Take `Cc1ccc(C(=O)Nc2cccc(C(F)(F)F)c2)cc1Nc1cncc(C(N)=O)c1` [Compound 9]: the “cellular activity against Src-family kinases (Tel-Src)” value on Tel-Src is “did not exhibit significant cellular activity”. Besides, the “cellular activity against Src-family kinases (Tel-Lyn)” value on Tel-Lyn is “did not exhibit significant cellular activity”. Besides, in assay [1], the “selectivity profile (binding to kinases)” value is “binding to a common set of kinases”. Also, the “inhibition of EphA6” value on EphA6 is on record as “not inhibited”. Also, on EphA7, the “affinity for EphA7” value is reported as “relatively low affinity” and the “inhibition of EphA7” value was “not inhibited”. Besides, on EphB1, the “inhibition of EphB1” value is “not inhibited”. Further, the “selectivity and potency (IC50)” value with Eph-family kinases was “good selectivity for Eph-family kinases with moderate potency”. On b-raf, the “cellular activity against b-raf” value was “did not exhibit significant cellular activity”.

With `Cc1ccc(C(=O)Nc2cccc(C(F)(F)F)c2)cc1Nc1[nH]cnc2ncnc1-2` [Compound 10], the “cross reactivity with FGFR2” value at FGFR2 is “cross reactivity”. At FGFR3, the “cross reactivity with FGFR3” value was “cross reactivity”. Besides, the “cross reactivity with FGFR4” value on FGFR4 was “cross reactivity”.

On to `Cc1nc(Nc2ncc(C(=O)Nc3c(C)cccc3Cl)s2)cc(N2CCN(CCO)CC2)n1` [dasatinib], for which the EphB2 as target entry on EphB2 is “identified as a target”.

For `Cc1cn(-c2cc(NC(=O)c3ccc(C)c(Nc4nccc(-c5cccnc5)n4)c3)cc(C(F)(F)F)c2)cn1` [nilotinib], at EphB2, the EphB2 as target entry is reported as “identified as a target”. Also, in [2], the “inhibition of Bcr-Abl gatekeeper mutation” value was “not inhibited”.

Source of the values: paper PMC2730633 (Bioorganic & medicinal chemistry letters, 2009).
